Assays:
SIRT1 = molecular target: T1, SIRT1 (Homo sapiens, UniProt Q96EB6); assay: Trp mass spectrometry assay (SIRT1 activation); format: biochemical; conditions: Trp mass spectrometry assay; for Tryp AVG EC1.5 (μM): EC1.5 = concentration giving 150% activation of SIRT1; for Emax: percent maximum fold activation of SIRT1, read-out: Tryp % Fold Act
T1 sequence (Q96EB6 1-747): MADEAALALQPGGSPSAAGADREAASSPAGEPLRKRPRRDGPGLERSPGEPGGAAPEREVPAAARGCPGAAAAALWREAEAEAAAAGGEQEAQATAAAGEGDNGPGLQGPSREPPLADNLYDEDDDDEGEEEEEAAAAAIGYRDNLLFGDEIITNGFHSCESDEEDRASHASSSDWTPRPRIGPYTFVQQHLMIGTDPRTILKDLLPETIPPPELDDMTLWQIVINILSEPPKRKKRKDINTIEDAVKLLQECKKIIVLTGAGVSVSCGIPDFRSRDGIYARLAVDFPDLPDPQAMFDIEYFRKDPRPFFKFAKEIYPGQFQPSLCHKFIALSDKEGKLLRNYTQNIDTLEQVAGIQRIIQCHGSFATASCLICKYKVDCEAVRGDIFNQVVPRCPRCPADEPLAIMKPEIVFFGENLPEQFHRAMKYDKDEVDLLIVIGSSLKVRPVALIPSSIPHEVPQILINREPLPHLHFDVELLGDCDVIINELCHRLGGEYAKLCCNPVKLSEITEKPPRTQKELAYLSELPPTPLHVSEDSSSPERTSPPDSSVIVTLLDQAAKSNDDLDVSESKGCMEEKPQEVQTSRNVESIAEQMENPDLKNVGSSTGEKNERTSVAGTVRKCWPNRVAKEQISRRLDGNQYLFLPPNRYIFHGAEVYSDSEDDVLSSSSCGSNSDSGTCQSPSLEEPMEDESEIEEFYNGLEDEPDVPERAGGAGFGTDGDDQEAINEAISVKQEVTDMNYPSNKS
Outline: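 Activation is expressed as EC1.5, the concentration raising activity 50% above DMSO control, and as maximum percent of control. Mass-spec readout was OAADPR or deacetylated Trp peptide after a formic-acid-quenched 25-min, 25 °C reaction: 10 nM bacterially expressed His-SIRT1, 0.5 μM acetyl-p53-derived peptide, 120 μM NAD+, pH 7.5 HEPES with […].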

mini-hSIRT1 = assay: Inhibition of mini-hSIRT1 constructs compared with the full-length enzyme; format: biochemical, human
Description: Final concentrations of the PNC1/GDH coupling system components used were 20 units/mL bovine GDH (Sigma-Aldrich), 1 uM yeast PNC1, 3.4 mM α-ketoglutarate, and 220 μM NADH or NADPH. An extinction coefficient of 6.22 mM^−1 cm^−1 and a pathlength of 0.81 cm was used to convert the absorbance at 340 nm to product concentration for the 150 uL reactions used. […] Quenched reactions were diluted 5-fold with 1:1 acetonitrile:methanol and spun at 5,000×g for 10 minutes to precipitate protein before being analyzed with an Agilent RapidFire 200 High-Throughput Mass Spectrometry System (Agilent, Wakefield, Mass.) coupled to an ABSciex API 4000 mass spectrometer fitted with an electrospray ionization source. The p53-based Ac-p53(W5) (Ac-RHKK^AcW-NH2) and FOXO-3a 21-mer (Ac-[…]^Ac[…]-NH2) peptides were obtained from Biopeptide, Inc. Deacetylation assays used the Ac-p53(W5) substrate unless otherwise noted.
Substrate KM determinations were performed by varying one substrate concentration at a fixed, saturating concentration of the second substrate. SIRT1 activation and inhibition assays were run in reaction buffer with 0.05% BSA at 25° C. and analyzed using the OAcADPr assay. Enzyme and compound were pre-incubated for 20 minutes before addition of substrates. […]

| SMILES | Tryp AVG EC1.5 (μM) (SIRT1) | Emax (SIRT1) | IC50 values, mini-hSIRT1 constructs versus full-length enzyme (mini-hSIRT1) |
| --- | --- | --- | --- |
| C#Cc1ccc(NC(=O)N2c3nc(-c4ccc(C5(C(F)(F)F)N=N5)cc4)ccc3N3CC[C@H]2C3)nc1 [Example 807] | C (EC1.5>25 μM) | < 150% | – |
| [N-]=[N+]=NCc1cc(N=[N+]=[N-])cc(-c2ccc3c(n2)N(C(=O)Nc2cnccn2)[C@H]2CCN3C2)c1 [Example 808] | A (EC1.5<1 μM) | ≥ 150% | – |
| C#CCNc1nccc(NC(=O)N2c3nc(-c4cccc(C5(C(F)(F)F)N=N5)c4)ccc3N3CC[C@H]2C3)n1 [Example 809] | B (EC1.5 1-25 μM) | ≥ 150% | – |
| O=C(Nc1ccncc1)N1c2nc(-c3cccc(C(F)(F)F)c3)ccc2N2CC[C@H]1C2 [Example 817] | A (EC1.5<1 μM) | ≥ 150% | – |
| O=C(Nc1cccc(OC[C@H](O)CO)n1)N1c2nc(-c3cccc(C(F)(F)F)c3)ccc2N2CC[C@H]1C2 [Example 818] | A (EC1.5<1 μM) | ≥ 150% | – |
| O=C(Nc1ccccn1)N1c2nc(-c3cccc(C(F)(F)F)c3)ccc2N2CCC[C@H]1C2 [Example 820] | A (EC1.5<1 μM) | ≥ 150% | – |
| O=C(Nc1ccncc1)N1c2nc(-c3cccc(C(F)(F)F)c3)ccc2N2CCC[C@H]1C2 [Example 821] | A (EC1.5<1 μM) | ≥ 150% | – |
| O=C(Nc1cccnn1)N1c2nc(-c3cccc(Cl)c3)ccc2N2CC[C@H]1C2 [Example 822] | A (EC1.5<1 μM) | ≥ 150% | – |
| O=C(Nc1ccccn1)N1c2nc(-c3cccc(C(F)(F)F)c3)ccc2N2CC[C@@H]1C2 [Example 823] | A (EC1.5<1 μM) | ≥ 150% | – |
| O=C(Nc1ccncc1)N1c2nc(-c3cccc(C(F)(F)F)c3)ccc2N2CC[C@@H]1C2 [Example 824] | A (EC1.5<1 μM) | ≥ 150% | – |
| NC(=O)c1cccnc1 [NAM, nicotinamide] | – | – | comparable |
